Experiments:
Conditions in all cases: 48 h
[1] = system: SEM cells; assay: cell viability relative to DMSO control; higher = less cytotoxic
Procedure, shortened: (§1)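 Cells were incubated for 48 h at 37°C before CellTiter-Glo One luminescence was read. The cells were NOMO1 or SEM (500 cells/well) or P12-Ichikawa (1000 cells/well) leukemia cells, adapted for at least four passages in each medium and seeded in 1536-well plates (5 μl). Dosing used library compounds in DMSO applied by pin over 11 threefold points, 47 μM to 0.79 nM. Viability is the per-plate percentage of DMSO wells, with cell-free wells as background.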

[2] = system: NOMO1; assay: as above
Procedure, shortened: as §1

[3] = system: P12-Ichikawa; assay: as above
Procedure, shortened: as §1

[4] = system: SEM cells; assay: AUC of viability dose-response curve (% viability x log10 dose units); higher = less sensitive
Procedure, shortened: (§2)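 Leukemia cells adapted to each medium were seeded in 1536-well plates (500 or 1000 cells/well). They were dosed with library compounds in DMSO at 11 threefold doses, 47 μM to 0.79 nM, for 48 h at 37°C. CellTiter-Glo One luminescence was normalised per plate to DMSO and cell-free wells. Area under the curve was integrated by trapezoidal rule over log10 doses on a four-parameter log-logistic fit; curves exceeding full viability were scaled and curves failing quality control removed.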

[5] = system: NOMO1; assay: as above
Procedure, shortened: as §2

[6] = system: P12-Ichikawa; assay: as above
Procedure, shortened: as §2

CC(C)(C)NC(=O)Nc1cccc(Nc2ncc(F)c(NC(C)(C)CO)n2)c1
cell viability [%]
Conditions | [1] | [2] | [3]
HPLM + 10% dialyzed FBS, 0.000781 µM | 101 | 99.9 | 105
HPLM + 10% dialyzed FBS, 0.00234 µM | 99.9 | 115 | 110
HPLM + 10% dialyzed FBS, 0.00702 µM | 103 | 133 | 112
HPLM + 10% dialyzed FBS, 0.0211 µM | 104 | 140 | 114
HPLM + 10% dialyzed FBS, 0.0632 µM | 109 | 112 | 118
HPLM + 10% dialyzed FBS, 0.19 µM | 102 | 137 | 121
HPLM + 10% dialyzed FBS, 0.569 µM | 99.8 | 122 | 117
HPLM + 10% dialyzed FBS, 1.71 µM | 101 | 130 | 120
HPLM + 10% dialyzed FBS, 5.12 µM | 77.1 | 127 | 108
HPLM + 10% dialyzed FBS, 15.4 µM | 31.5 | 111 | 14.7
HPLM + 10% dialyzed FBS, 46.1 µM | 29.9 | 108 | 24.4
RPMI 5 mM glucose + 10% FBS, 0.000781 µM | 108 | 123 | 114
RPMI 5 mM glucose + 10% FBS, 0.00234 µM | 103 | 115 | 118
RPMI 5 mM glucose + 10% FBS, 0.00702 µM | 104 | 127 | 124
RPMI 5 mM glucose + 10% FBS, 0.0211 µM | 108 | 112 | 121
RPMI 5 mM glucose + 10% FBS, 0.0632 µM | 115 | 135 | 129
RPMI 5 mM glucose + 10% FBS, 0.19 µM | 120 | 112 | 121
RPMI 5 mM glucose + 10% FBS, 0.569 µM | 95.8 | 120 | 122
RPMI 5 mM glucose + 10% FBS, 1.71 µM | 102 | 133 | 132
RPMI 5 mM glucose + 10% FBS, 5.12 µM | 69.1 | 111 | 116
RPMI 5 mM glucose + 10% FBS, 15.4 µM | 16.4 | 69.8 | 35.2
RPMI 5 mM glucose + 10% FBS, 46.1 µM | 9.58 | 98.4 | 40.4
RPMI 5 mM glucose + 10% dialyzed FBS, 0.000781 µM | 107 | – | 120
RPMI 5 mM glucose + 10% dialyzed FBS, 0.00234 µM | 118 | – | 117
RPMI 5 mM glucose + 10% dialyzed FBS, 0.00702 µM | 110 | – | 120
RPMI 5 mM glucose + 10% dialyzed FBS, 0.0211 µM | 115 | – | 116
RPMI 5 mM glucose + 10% dialyzed FBS, 0.0632 µM | 115 | – | 124
RPMI 5 mM glucose + 10% dialyzed FBS, 0.19 µM | 120 | – | 119
RPMI 5 mM glucose + 10% dialyzed FBS, 0.569 µM | 111 | – | 117
RPMI 5 mM glucose + 10% dialyzed FBS, 1.71 µM | 103 | – | 119
RPMI 5 mM glucose + 10% dialyzed FBS, 5.12 µM | 71.8 | – | 114
RPMI 5 mM glucose + 10% dialyzed FBS, 15.4 µM | 19.9 | – | 34.6
RPMI 5 mM glucose + 10% dialyzed FBS, 46.1 µM | 16 | – | 51

AUC of viability dose-response curve
Conditions | [4] | [5] | [6]
HPLM + 10% dialyzed FBS | 415 | 477 | 415
RPMI 5 mM glucose + 10% FBS | 396 | 450 | 425
RPMI 5 mM glucose + 10% dialyzed FBS | 397 | 459 | 429

Clc1ccc(-c2nc3sccn3c2/C=N/OCc2ccc(Cl)c(Cl)c2)cc1
cell viability [%]
Conditions | [1] | [2] | [3]
HPLM + 10% dialyzed FBS, 0.000781 µM | 127 | 122 | 114
HPLM + 10% dialyzed FBS, 0.00234 µM | 122 | 113 | 109
HPLM + 10% dialyzed FBS, 0.00702 µM | 101 | 128 | 107
HPLM + 10% dialyzed FBS, 0.0211 µM | 119 | 126 | 112
HPLM + 10% dialyzed FBS, 0.0632 µM | 124 | 125 | 108
HPLM + 10% dialyzed FBS, 0.19 µM | 111 | 110 | 103
HPLM + 10% dialyzed FBS, 0.569 µM | 115 | 109 | 104
HPLM + 10% dialyzed FBS, 1.71 µM | 88.5 | 108 | 106
HPLM + 10% dialyzed FBS, 5.12 µM | 100 | 99.6 | 101
HPLM + 10% dialyzed FBS, 15.4 µM | 101 | 101 | 99.9
HPLM + 10% dialyzed FBS, 46.1 µM | 117 | 122 | 98
RPMI 5 mM glucose + 10% FBS, 0.000781 µM | – | 121 | 111
RPMI 5 mM glucose + 10% FBS, 0.00234 µM | – | 114 | 113
RPMI 5 mM glucose + 10% FBS, 0.00702 µM | – | 117 | 118
RPMI 5 mM glucose + 10% FBS, 0.0211 µM | – | 120 | 102
RPMI 5 mM glucose + 10% FBS, 0.0632 µM | – | 112 | 113
RPMI 5 mM glucose + 10% FBS, 0.19 µM | – | 109 | 108
RPMI 5 mM glucose + 10% FBS, 0.569 µM | – | 101 | 110
RPMI 5 mM glucose + 10% FBS, 1.71 µM | – | 104 | 110
RPMI 5 mM glucose + 10% FBS, 5.12 µM | – | 117 | 98.5
RPMI 5 mM glucose + 10% FBS, 15.4 µM | – | 103 | 96.5
RPMI 5 mM glucose + 10% FBS, 46.1 µM | – | 108 | 98.9
RPMI 5 mM glucose + 10% dialyzed FBS, 0.000781 µM | 131 | 101 | 114
RPMI 5 mM glucose + 10% dialyzed FBS, 0.00234 µM | 122 | 110 | 110
RPMI 5 mM glucose + 10% dialyzed FBS, 0.00702 µM | 111 | 123 | 101
RPMI 5 mM glucose + 10% dialyzed FBS, 0.0211 µM | 137 | 125 | 110
RPMI 5 mM glucose + 10% dialyzed FBS, 0.0632 µM | 120 | 114 | 110
RPMI 5 mM glucose + 10% dialyzed FBS, 0.19 µM | 134 | 98 | 100
RPMI 5 mM glucose + 10% dialyzed FBS, 0.569 µM | 135 | 113 | 102
RPMI 5 mM glucose + 10% dialyzed FBS, 1.71 µM | 104 | 114 | 101
RPMI 5 mM glucose + 10% dialyzed FBS, 5.12 µM | 113 | 111 | 91.3
RPMI 5 mM glucose + 10% dialyzed FBS, 15.4 µM | 110 | 99.8 | 101
RPMI 5 mM glucose + 10% dialyzed FBS, 46.1 µM | 115 | 111 | 102

AUC of viability dose-response curve
Conditions | [4] | [5] | [6]
HPLM + 10% dialyzed FBS | 453 | 445 | 448
RPMI 5 mM glucose + 10% FBS | 430 | 451 | 463
RPMI 5 mM glucose + 10% dialyzed FBS | 455 | 461 | 454

— the supplement of paper PMC11451515
